{"source": "patent US7091182B2", "about": "“Method for assisting in differential diagnosis and treatment of autistic syndromes” (Repligen Corporation, priority 1997, dated 2006)", "format_in_all_cases": "in vivo, human", "key": {"[1]": {"test_system": "children with autistic behavior", "test": "Stool consistency / gastrointestinal symptoms after endoscopy and secretin injection", "source_text": "The specific procedures were as follows."}, "[2]": {"test_system": "children with autistic behavior", "test": "Blood levels of gastrointestinal peptide hormones and neurotransmitters prior to and 10 minutes after secretin stimulation", "experimental": "After fasting from midnight, upper gastrointestinal endoscopies were carried out the next morning under general anesthesia. All gastric juice was aspirated before passing the endoscope into the duodenum. The pancreatico-biliary juice was collected after positioning the endoscope distal to the ampulla of Vater. An ERCP catheter was placed into the channel of endoscope and the fluid was collected by moving the tip into the outcoming fluid and suctioning it into a syringe. The pancreas was then stimulated with secretin 2 IU/kg BW (Ferring Laboratories, Inc. Suffern, NY, USA) given intravenously within a minute. Three additional specimens were collected after the secretin injection within a 10-minute period. Blood samples were collected prior to and 10 minutes after secretin stimulation. In a subgroup of children, the effect of duodenal acidification was determined by measurement of blood secretin levels before and 4–5 minutes after washing the second part of the duodenum with 0.05M hydrochloric acid for 5 minutes. At the end of the procedure, biopsies were obtained of the small intestine, esophagus and stomach.\nBlood samples were analyzed for the levels of gastrointestinal peptide hormones (Secretin, CCK, VIP, Peptide Y) and neurotransmitters (Serotonin, Substance P). All the assays were performed in the Interscience Institute (Inglewood, Calif.) specialized in gastrointestinal hormone measurements."}, "[3]": {"test_system": "children with autistic behavior", "test": "Evoked potential studies and SPECT imaging of the brain before and after secretin (Case 1)", "source_text": "Case 1. […], was the product of a full-term uncomplicated pregnancy. Development of language and social behavior proceeded normally until about 15 months of age. At that time they lost their expressive vocabulary and their social behavior deteriorated. They were clinically diagnosed with autism by a pediatric neurologist. A multidisciplinary evaluation changed the diagnosis to PDD not otherwise specified. […] Because of their chronic diarrhea and elevated antigliadin IgG antibody titer, they underwent an upper gastrointestinal endoscopy. […] Three weeks after the procedure their parent reported significant changes in their gastrointestinal symptoms and behavior. […] More dramatic changes occurred in their autistic behavior (Table 4). […] Eight months after the procedure they have still retained their cognitive gains."}}, "note": "“Also recorded” adds a separate entry of the source."}
{"substance": "secretin", "values": [{"measurement": "chronic diarrhea", "setting": "[1]; Case 1, within three weeks after the procedure", "value": "their chronic diarrhea resolved; also recorded: His chronic diarrhea resolved"}, {"measurement": "chronic diarrhea", "setting": "[1]; Case 3", "value": "His chronic diarrhea resolved"}, {"measurement": "duration of stool improvement", "setting": "[1]; seven children with chronic loose stools", "value": "In five children this improvement was permanent"}, {"measurement": "consistency of stools", "setting": "[1]; seven children with chronic loose stools, after endoscopy and secretin injection", "value": "all of them had an improvement in the consistency of stools"}, {"measurement": "Serotonin level after secretin injection", "setting": "[2]; Group I (chronic loose stools/diarrhea)", "value": ">50", "unit": "% elevation"}, {"measurement": "Serotonin level after secretin injection", "setting": "[2]; Group II (no diarrhea)", "value": "<50", "unit": "% elevation"}, {"measurement": "blood level of CCK", "setting": "[2]; after secretin injection", "value": "no change at all"}, {"measurement": "blood level of VIP", "setting": "[2]; after secretin injection", "value": "no change at all"}, {"measurement": "blood level of substance P", "setting": "[2]; after secretin injection", "value": "no change at all"}, {"measurement": "blood serotonin level", "setting": "[2]; children with chronic diarrhea, ten minutes after secretin injection, fasting", "value": "significant elevation"}, {"measurement": "blood level of Peptide Y", "setting": "[2]; four children, before or after secretin administration", "value": "no abnormality"}, {"measurement": "repeat evoked potential studies", "setting": "[3]; Case 1, eight months after secretin administration", "value": "only a minimal delay in responses"}, {"measurement": "SPECT, cerebral perfusion / blood flow", "setting": "[3]; Case 1, follow-up versus pre-secretin study", "value": "marked improvement in the cerebral blood flow; also recorded: less marked decrease in perfusion of right posterior parietal and right temporal lobes"}]}
